In BindingDB's records for doi:10.1021/jm00164a002 (Syntex Research, 1990) one finds koff, Ki and kon data, which are given here for 56 compounds.

For orientation: koff means the first-order rate constant of dissociation. Low values mean a long-lived complex, high ones a short-lived complex. What is called Ki is a dissociation constant, usually derived from enzyme kinetics or from competition with a known ligand. Low values mean tighter binding, high ones weaker binding. One may read the kon as the second-order rate constant of association.

The structures appear in SMILES notation.

The first assay has as its target T1, Neutrophil elastase (Homo sapiens, UniProt P08246).
T1 sequence (P08246 whole entry): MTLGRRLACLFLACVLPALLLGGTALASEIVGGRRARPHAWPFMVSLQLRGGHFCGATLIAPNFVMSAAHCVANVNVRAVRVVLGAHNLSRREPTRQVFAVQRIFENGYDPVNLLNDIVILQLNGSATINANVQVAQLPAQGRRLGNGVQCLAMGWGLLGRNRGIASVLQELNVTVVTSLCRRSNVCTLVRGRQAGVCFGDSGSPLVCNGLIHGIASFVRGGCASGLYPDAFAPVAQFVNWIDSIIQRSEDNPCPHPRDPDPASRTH
The experiment in a line: Component deacylation rate constant for interaction with human leukocyte elastase.
Details: not given
Consider `CCSc1nc2cccc(C)c2c(=O)o1`, for which the koff turned out to be 0.00141 s⁻¹.

Consider `COC(=O)[C@@H](CC(C)C)Nc1nc2ccccc2c(=O)o1`, for which the affinity, expressed as Ki, was 39.8 nM and the koff amounted to 0.00138 s⁻¹.

Compound `COC(=O)[C@H](CC(C)C)Nc1nc2ccccc2c(=O)o1` returned a Ki of 159 nM and a dissociation rate constant (koff) of 0.000389 s⁻¹.

In the case of `COc1cc2nc(SCc3c[nH]cn3)oc(=O)c2cc1OC`, the inhibition constant (Ki) was 1000 nM and the koff was 0.00759 s⁻¹.

Compound `O=c1oc(/C=C/c2ccccc2)nc2ccccc12` displayed a koff of 0.00316 s⁻¹.

For `COc1cc(C)c2c(=O)oc(NC(C)C)nc2c1`, the koff was 0.000794 s⁻¹.

`CC(C)C[C@H](NC(=O)C1CCCN1c1nc2ccccc2c(=O)o1)C(N)=O` (some centres not stated) displayed a koff of 0.000324 s⁻¹.

On to `Cc1cc(N)cc2nc(NC(C)C)oc(=O)c12`, for which the koff turned out to be 1.78e-05 s⁻¹.

In the case of `COC(=O)[C@H](Cc1ccc(O)cc1)Nc1nc2ccccc2c(=O)o1`, the dissociation rate constant (koff) was 0.000851 s⁻¹.

`Cc1cc(C)c2c(=O)oc(NC(C)C)nc2c1` came in with a Ki of 6.31 nM and a koff of 1.51e-05 s⁻¹.

Turning to `CCC(C)CNc1nc2cccc(C)c2c(=O)o1` (configuration not stated), the dissociation rate constant (koff) worked out at 7.41e-05 s⁻¹.

For the compound `CC(C)C[C@H](NC(=O)[C@@H]1CCCN1c1nc2ccccc2c(=O)o1)C(=O)NCC(N)=O`, the koff was 0.000229 s⁻¹.

For the compound `CCc1cccc2c(=O)oc(NC(C)C)nc12`, the off-rate constant (koff) stood at 0.024 s⁻¹.

`Cc1cccc2nc(OCC(C)C)oc(=O)c12`: the dissociation rate constant (koff) is 1.12e-05 s⁻¹.

`Cc1cccc2nc(C(F)(F)F)oc(=O)c12` displayed a Ki of 31.6 nM and a koff of 0.00371 s⁻¹.

Compound `CCCCNc1nc2cc(N)ccc2c(=O)o1` gave an off-rate (koff) of 0.00182 s⁻¹.

As to `CCOc1nc2cc(N(C)C)ccc2c(=O)o1`, the koff worked out at 1.41e-05 s⁻¹.

Regarding `COc1cc2nc(SCc3ccccc3)oc(=O)c2cc1OC`, the inhibition constant (Ki) was 2000 nM and the off-rate constant (koff) was 0.0123 s⁻¹.

As to `CCCC(C)Nc1nc2cccc(C)c2c(=O)o1` (configuration not stated), the affinity corresponds to a Ki of 794 nM and the koff worked out at 0.00371 s⁻¹.

On to `C/C=C/c1cccc2nc(OCC)oc(=O)c12`, for which the koff came out at 6.61e-05 s⁻¹.

Turning to `CCCc1cccc2nc(OCC)oc(=O)c12`, the koff worked out at 7.08e-05 s⁻¹.

Turning to `O=c1oc(C(F)(F)F)nc2ccccc12`, the Ki is 159 nM.

Turning to `CCOc1nc2cccc(C(Br)Br)c2c(=O)o1`, the off-rate (koff) amounted to 0.00468 s⁻¹.

`CCCNC(=O)Nc1ccc2c(=O)oc(NC(C)C)nc2c1` yielded a koff of 0.017 s⁻¹.

In turn, `CCC(CC)Nc1nc2cccc(C)c2c(=O)o1` had a Ki of 794 nM and a koff of 0.00562 s⁻¹.

The compound `CCSc1nc2ccc(C)cc2c(=O)o1` returned a Ki of 159 nM.

In the case of `Cc1cc(N(C)C)cc2nc(NC(C)C)oc(=O)c12`, the koff stood at 0.000129 s⁻¹.

Take `NC(=O)[C@H](Cc1ccccc1)NC(=O)[C@@H]1CCCN1c1nc2ccccc2c(=O)o1`: the Ki came out at 39.8 nM and the off-rate (koff) turned out to be 0.000537 s⁻¹.

With `O=c1oc(NCCc2ccccc2)nc2ccccc12`, the affinity, expressed as Ki, was 1590 nM and the off-rate (koff) is 0.00191 s⁻¹.

With `CSc1nc2cccc(C)c2c(=O)o1`, the koff worked out at 0.000355 s⁻¹.

`CC(C)Nc1nc2cc(N(C)C)ccc2c(=O)o1`: the dissociation rate constant (koff) was 0.000479 s⁻¹.

With `CCOC(=O)[C@H](C)Nc1nc2ccccc2c(=O)o1`, the inhibitory constant (Ki) worked out at 794 nM and the off-rate constant (koff) worked out at 0.00224 s⁻¹.

In turn, `CC(C)CN(CC(C)C)c1nc2ccccc2c(=O)o1` returned a koff of 0.000977 s⁻¹.

Compound `CC(=O)NCc1nc2ccccc2c(=O)o1` came in with an off-rate (koff) of 0.00132 s⁻¹.

`O=c1oc(C(F)(F)C(F)(F)C(F)(F)F)nc2ccccc12`: the affinity, expressed as Ki, was 100 nM.

The compound `NC(=O)[C@H](Cc1ccccc1)Nc1nc2ccccc2c(=O)o1` gave a koff of 0.00038 s⁻¹.

`CCCCN(CCCC)c1nc2ccccc2c(=O)o1` returned a Ki of 5010 nM and a koff of 0.00123 s⁻¹.

The compound `CCCc1cc(N(C)C)cc2nc(NC(C)C)oc(=O)c12` registered an off-rate (koff) of 0.000182 s⁻¹.

For the compound `CCSc1nc2ccc(NC(C)=O)cc2c(=O)o1`, the affinity corresponds to a Ki of 1590 nM.

In turn, `Cc1cccc2c(=O)oc(NC(C)C)nc12` yielded a Ki of 631 nM.

`Cc1ccc2nc(C)oc(=O)c2c1` showed a Ki of 31600 nM.

Compound `O=c1oc(C(F)(F)C(F)(F)F)nc2ccccc12` displayed an inhibition constant Ki of 100 nM.

`CCCCNc1nc2cccc(CC)c2c(=O)o1` [2-Butylamino-5-ethyl-benzo[d][1,3]oxazin-4-one] had a koff of 0.000537 s⁻¹.

With `CCCCNc1nc2ccccc2c(=O)o1` [2-Butylamino-benzo[d][1,3]oxazin-4-one], affinity was put at a Ki of 79.4 nM.

In turn, `Cc1cccc2nc(NC(C)C)oc(=O)c12` [2-Isopropylamino-5-methyl-benzo[d][1,3]oxazin-4-one] returned an inhibitory constant (Ki) of 1.58 nM.

`CC(C)Nc1nc2ccccc2c(=O)o1` [2-Isopropylamino-benzo[d][1,3]oxazin-4-one] displayed a koff of 0.00309 s⁻¹.

`CCCNc1nc2ccccc2c(=O)o1` [2-Propylamino-benzo[d][1,3]oxazin-4-one]: the inhibitory constant (Ki) came to 100 nM.

The compound `CNc1nc2cccc(C)c2c(=O)o1` [5-Methyl-2-methylamino-benzo[d][1,3]oxazin-4-one] gave a dissociation rate constant (koff) of 0.151 s⁻¹.

The compound `CCCNc1nc2cccc(C)c2c(=O)o1` [5-Methyl-2-propylamino-benzo[d][1,3]oxazin-4-one] registered a Ki of 6.31 nM and a koff of 0.000339 s⁻¹.

The same assay, now with this note: read-out: kon (M-1-s-1).
For `CCSc1nc2cccc(C)c2c(=O)o1`, the kon turned out to be 1.51e+06 M⁻¹ s⁻¹.

In the case of `COC(=O)[C@@H](CC(C)C)Nc1nc2ccccc2c(=O)o1`, the kon turned out to be 39800 M⁻¹ s⁻¹.

For the compound `COC(=O)[C@H](CC(C)C)Nc1nc2ccccc2c(=O)o1`, the on-rate (kon) was determined as 2290 M⁻¹ s⁻¹.

Turning to `COc1cc2nc(SCc3c[nH]cn3)oc(=O)c2cc1OC`, the kon is 6920 M⁻¹ s⁻¹.

As for `O=c1oc(/C=C/c2ccccc2)nc2ccccc12`, the on-rate (kon) amounted to 389 M⁻¹ s⁻¹.

In the case of `COc1cc(C)c2c(=O)oc(NC(C)C)nc2c1`, the association rate constant (kon) amounted to 20900 M⁻¹ s⁻¹.

For `CC(C)C[C@H](NC(=O)C1CCCN1c1nc2ccccc2c(=O)o1)C(N)=O` (some centres not stated), the association rate constant (kon) was found to be 15100 M⁻¹ s⁻¹.

Consider `Cc1cc(N)cc2nc(NC(C)C)oc(=O)c12`, for which the kon amounted to 229 M⁻¹ s⁻¹.

For the compound `COC(=O)[C@H](Cc1ccc(O)cc1)Nc1nc2ccccc2c(=O)o1`, the kon stood at 1900 M⁻¹ s⁻¹.

As to `Cc1cc(C)c2c(=O)oc(NC(C)C)nc2c1`, the kon amounted to 2570 M⁻¹ s⁻¹.

Turning to `CCC(C)CNc1nc2cccc(C)c2c(=O)o1` (configuration not stated), the kon is 112 M⁻¹ s⁻¹.

With `CC(C)C[C@H](NC(=O)[C@@H]1CCCN1c1nc2ccccc2c(=O)o1)C(=O)NCC(N)=O`, the association rate constant (kon) was 11000 M⁻¹ s⁻¹.

On to `CCc1cccc2c(=O)oc(NC(C)C)nc12`, for which the kon was found to be 24000 M⁻¹ s⁻¹.

For `CCSc1nc2cc(OC)c(OC)cc2c(=O)o1`, the on-rate (kon) worked out at 100000 M⁻¹ s⁻¹.

In the case of `Cc1cccc2nc(OCC(C)C)oc(=O)c12`, the kon came to 7080 M⁻¹ s⁻¹.

Regarding `Cc1cccc2nc(C(F)(F)F)oc(=O)c12`, the kon was 129000 M⁻¹ s⁻¹.

As to `CCCCNc1nc2cc(N)ccc2c(=O)o1`, the kon was found to be 2820 M⁻¹ s⁻¹.

Consider `CCOc1nc2cc(N(C)C)ccc2c(=O)o1`, for which the kon amounted to 2880 M⁻¹ s⁻¹.

For `COc1cc2nc(SCc3ccccc3)oc(=O)c2cc1OC`, the on-rate (kon) turned out to be 5750 M⁻¹ s⁻¹.

Regarding `CCCC(C)Nc1nc2cccc(C)c2c(=O)o1` (configuration not stated), the kon amounted to 5010 M⁻¹ s⁻¹.

Regarding `CC(C)Cc1nc2ccccc2c(=O)o1`, the association rate constant (kon) came out at 20000 M⁻¹ s⁻¹.

Turning to `C/C=C/c1cccc2nc(OCC)oc(=O)c12`, the kon stood at 347000 M⁻¹ s⁻¹.

For `CCSc1nc2c(C)cccc2c(=O)o1`, the association rate constant (kon) amounted to 2e+06 M⁻¹ s⁻¹.

As to `CCCc1cccc2nc(OCC)oc(=O)c12`, the kon came out at 309000 M⁻¹ s⁻¹.

With `O=c1oc(C(F)(F)F)nc2ccccc12`, the kon was 100000 M⁻¹ s⁻¹.

Regarding `CCOc1nc2cccc(C(Br)Br)c2c(=O)o1`, the kon turned out to be 1e+07 M⁻¹ s⁻¹.

Regarding `CCCNC(=O)Nc1ccc2c(=O)oc(NC(C)C)nc2c1`, the association rate constant (kon) was found to be 12600 M⁻¹ s⁻¹.

As to `CCC(CC)Nc1nc2cccc(C)c2c(=O)o1`, the kon worked out at 7760 M⁻¹ s⁻¹.

Take `CCSc1nc2ccc(C)cc2c(=O)o1`: the kon amounted to 1e+06 M⁻¹ s⁻¹.

As to `Cc1cc(N(C)C)cc2nc(NC(C)C)oc(=O)c12`, the kon amounted to 102 M⁻¹ s⁻¹.

For `NC(=O)[C@H](Cc1ccccc1)NC(=O)[C@@H]1CCCN1c1nc2ccccc2c(=O)o1`, the kon was determined as 14400 M⁻¹ s⁻¹.

As to `O=c1oc(NCCc2ccccc2)nc2ccccc12`, the on-rate (kon) was 1120 M⁻¹ s⁻¹.

Turning to `CSc1nc2cccc(C)c2c(=O)o1`, the kon was determined as 251000 M⁻¹ s⁻¹.

Regarding `CC(C)Nc1nc2cc(N(C)C)ccc2c(=O)o1`, the kon stood at 1000 M⁻¹ s⁻¹.

Take `CCOC(=O)[C@H](C)Nc1nc2ccccc2c(=O)o1`: the kon is 2570 M⁻¹ s⁻¹.

Consider `CC(C)(C)c1nc2ccccc2c(=O)o1`, for which the kon was found to be 10000 M⁻¹ s⁻¹.

Consider `CC(C)CN(CC(C)C)c1nc2ccccc2c(=O)o1`, for which the association rate constant (kon) was 151 M⁻¹ s⁻¹.

With `Cc1nc2c(N)cccc2c(=O)o1`, the on-rate (kon) came out at 2000 M⁻¹ s⁻¹.

For `CC(=O)NCc1nc2ccccc2c(=O)o1`, the kon is 174 M⁻¹ s⁻¹.

With `O=c1oc(C(F)(F)C(F)(F)C(F)(F)F)nc2ccccc12`, the kon was 10000 M⁻¹ s⁻¹.

Take `NC(=O)[C@H](Cc1ccccc1)Nc1nc2ccccc2c(=O)o1`: the kon came out at 1200 M⁻¹ s⁻¹.

Consider `COC(=O)[C@H](CC(C)C)NC(=O)[C@H](CC(C)C)Nc1nc2cc(C)cc(C)c2c(=O)o1`, for which the on-rate (kon) was determined as 1260 M⁻¹ s⁻¹.

With `CCCCN(CCCC)c1nc2ccccc2c(=O)o1`, the on-rate constant (kon) is 269 M⁻¹ s⁻¹.

With `CCCc1cc(N(C)C)cc2nc(NC(C)C)oc(=O)c12`, the kon was determined as 646 M⁻¹ s⁻¹.

With `CCSc1nc2ccc(NC(C)=O)cc2c(=O)o1`, the on-rate (kon) came out at 10000 M⁻¹ s⁻¹.

Turning to `CCCCNc1nc2cccc(CC)c2c(=O)o1` [2-Butylamino-5-ethyl-benzo[d][1,3]oxazin-4-one], the on-rate (kon) was 129000 M⁻¹ s⁻¹.

As for `CC(C)Nc1nc2ccccc2c(=O)o1` [2-Isopropylamino-benzo[d][1,3]oxazin-4-one], the on-rate (kon) was found to be 58900 M⁻¹ s⁻¹.

As for `O=c1oc(-c2ccccc2)nc2ccccc12` [2-Phenyl-4H-3,1-benzoxazin-4-one (3)], the kon turned out to be 10000 M⁻¹ s⁻¹.

With `CNc1nc2cccc(C)c2c(=O)o1` [5-Methyl-2-methylamino-benzo[d][1,3]oxazin-4-one], the kon was found to be 4900 M⁻¹ s⁻¹.

Take `CCCNc1nc2cccc(C)c2c(=O)o1` [5-Methyl-2-propylamino-benzo[d][1,3]oxazin-4-one]: the kon was 56200 M⁻¹ s⁻¹.
